Drawing on publication PMC2171038 (Traffic (Copenhagen, Denmark), 2007), this text covers IC50 for one compound.

This assay has as its target T1, protoporphyrinogen oxidase (Saccharomyces cerevisiae, UniProt P40012).
T1 sequence (P40012 1-539): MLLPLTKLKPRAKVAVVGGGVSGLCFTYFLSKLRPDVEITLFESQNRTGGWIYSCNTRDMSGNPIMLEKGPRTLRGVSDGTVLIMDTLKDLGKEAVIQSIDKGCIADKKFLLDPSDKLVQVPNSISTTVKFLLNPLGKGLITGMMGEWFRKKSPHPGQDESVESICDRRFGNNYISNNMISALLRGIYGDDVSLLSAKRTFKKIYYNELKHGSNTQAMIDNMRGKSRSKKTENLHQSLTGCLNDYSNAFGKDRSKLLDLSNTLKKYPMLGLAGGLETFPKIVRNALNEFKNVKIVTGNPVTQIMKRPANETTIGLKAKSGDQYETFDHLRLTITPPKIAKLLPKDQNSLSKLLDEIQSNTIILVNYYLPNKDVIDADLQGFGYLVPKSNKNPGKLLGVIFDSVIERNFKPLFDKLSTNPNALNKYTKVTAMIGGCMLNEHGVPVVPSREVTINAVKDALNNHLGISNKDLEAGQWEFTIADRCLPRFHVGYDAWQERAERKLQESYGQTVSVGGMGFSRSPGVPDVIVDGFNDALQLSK
Nature of the assay: fluorimetric protoporphyrinogen oxidase activity assay. Type of assay: biochemical.

For the compound `CC(=O)N(O)CCCCCNC(=O)CCC(=O)N(O)CCCCCNC(=O)CCC(=O)N(O)CCCCCNC(=O)c1cc(Oc2ccc(C(F)(F)F)cc2Cl)ccc1[N+](=O)[O-]` [compound 1, DFOB-AF], the 50% inhibitory concentration (IC50) was about 100 nM.
